Data from PubChem BioAssay (NCI).
Several values for one entry are separate records, joined by “and”; a condition that tells them apart may be missing. Identical values can stand only once.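 The compound was tested at five concentrations on cells cultured in 96-well plates, with a 48-hour exposure period. GI50 = concentration required for 50% inhibition of growth. TGI denotes the concentration required for complete inhibition of growth.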

Test system: RXF 393 renal
Experiment: inhibition of tumour cell growth, NCI panel, 48 h

SMILES | TGI
O=c1[nH][nH]c(=O)n1Cc1ccccc1Cn1c(=O)[nH][nH]c1=O | > 100 µM
CCOC(=O)c1c2ccccc2n2c(N)c(C(N)=O)nnc12 | 41.6 µM
O=C(NNC(=O)c1ccccc1SSc1ccccc1C(=O)NNC(=O)c1ccccc1S)c1ccccc1S | > 100 µM
CCOC(=O)C(NC(C)=O)(Nc1ccc(F)cc1)C(F)(F)F (stereo not drawn) | > 100 µM
O=C1/C(=C/c2ccc(O)cc2)CC/C1=C\c1ccc(O)cc1 | > 100 µM
CC(C)C1/C(=N/O)CC(c2ccccc2)N(N=O)C1c1ccccc1 (stereo not drawn) | > 100 µM
COc1cc(/C=C2\S/C(=N/Nc3nc(-c4ccc(Br)cc4)cs3)NC2=O)cc(OC)c1OC | 19.4 µM
COC(=O)[C@H]1CO[C@@H](C(C)(C)C)N1C(=O)N1C=CC(=O)C[C@@H]1C | > 100 µM
CCC1(O)CC2CC(=O)OC2C1O (stereo not drawn) | > 100 µM
Cc1ccc(SCC(CSCCO)OCn2cnc3c2NC(N)=NC32OCCO2)cc1 (stereo not drawn) | > 100 µM
Oc1cccc2c(Cl)ccnc12 | 7.95 µM
N#CC1=C(N)N(c2ccccc2)C(c2ccco2)C1(C#N)C#N (stereo not drawn) | 37.1 µM
NC(=O)C(c1ccccc1)N1OC2C(=O)N(c3ccccc3)C(=O)C2C1c1c2ccccc2c(Cl)c2ccccc12 (stereo not drawn) | > 100 µM
CC(C)c1ccc(/C=C2/C=C(c3ccc4ccccc4c3)OC2=O)cc1 | > 100 µM
COc1ccc(C(OCC2OC(n3cc(C)c(=O)[nH]c3=O)CC2n2cc(Cn3cc(I)c(=O)[nH]c3=O)nn2)(c2ccccc2)c2ccccc2)cc1 (stereo not drawn) | > 100 µM
O=S1(=O)NC(=NCc2c[nH]c3ccccc23)N(c2ccccc2)c2ccncc21 | > 100 µM
COc1ccc(CNc2nc(NCc3ccc(OC)c(OC)c3)nc(NC3CCCCC3)n2)cc1 | 6.22 µM
Cc1c2cnccc2c(C)c2c1c1ccccc1n2CCCN | 0.799 µM and 0.888 µM
O=C(CCC(=O)c1ccc(Cl)cc1)NO | > 100 µM
COc1c(C)c(C/C=C(\C)CCCCO[Si](c2ccccc2)(c2ccccc2)C(C)(C)C)c(OC)c(OC)c1OC | > 100 µM
COc1ccc(C2c3cc4c(cc3OC(NNS(=O)(=O)c3ccc(C)cc3)C2C)OCO4)cc1 (stereo not drawn) | > 100 µM
C[C@@]12C[C@@H](c3ccccc3O1)N1CCCCSC1=N2 | > 100 µM
c1ccc(N=C2SC3=Nc4cccc5cccc(c45)N3C2=Nc2ccccc2)cc1 | > 100 µM
Cc1nc(C(N)=S)sc1/C(CC(=O)C(=O)Nc1cccc2ccc(O)cc12)=N\NC(=O)c1ccncc1 | > 100 µM
Cc1cc(O)c2c(=O)c3ccccc3[nH]c2c1 | 82.8 µM
Oc1cc2c3c(c1)c1cc4c(cc1c[n+]3CC2)OCO4 | > 68.8 µM
Nc1cccc2cc(Cl)cnc12 | > 100 µM
C=C1c2nc3ccccc3n2C=C(c2ccccc2)N1c1ccc([N+](=O)[O-])cc1 | 16 µM
Cc1ccccc1-n1c(=O)c2ncn(CCCl)c2n(-c2ccccc2C)c1=S | > 100 µM

Test system: SK-MEL-28 melanoma
Experiment: inhibition of tumour cell growth, NCI panel, 48 h

SMILES | TGI | GI50
O=c1[nH][nH]c(=O)n1Cc1ccccc1Cn1c(=O)[nH][nH]c1=O | > 100 µM | 
CCOC(=O)c1c2ccccc2n2c(N)c(C(N)=O)nnc12 | > 100 µM | 
O=C(NNC(=O)c1ccccc1SSc1ccccc1C(=O)NNC(=O)c1ccccc1S)c1ccccc1S | > 91.7 µM | 
CCOC(=O)C(NC(C)=O)(Nc1ccc(F)cc1)C(F)(F)F (stereo not drawn) | > 100 µM | 
O=C1/C(=C/c2ccc(O)cc2)CC/C1=C\c1ccc(O)cc1 | > 100 µM | 
CC(C)C1/C(=N/O)CC(c2ccccc2)N(N=O)C1c1ccccc1 (stereo not drawn) | > 100 µM | 
COc1cc(/C=C2\S/C(=N/Nc3nc(-c4ccc(Br)cc4)cs3)NC2=O)cc(OC)c1OC | 99.1 µM | 
COC(=O)[C@H]1CO[C@@H](C(C)(C)C)N1C(=O)N1C=CC(=O)C[C@@H]1C | > 100 µM | 
CCC1(O)CC2CC(=O)OC2C1O (stereo not drawn) | > 100 µM | 
Cc1ccc(SCC(CSCCO)OCn2cnc3c2NC(N)=NC32OCCO2)cc1 (stereo not drawn) | > 100 µM | 
Oc1cccc2c(Cl)ccnc12 | 35.9 µM | 
N#CC1=C(N)N(c2ccccc2)C(c2ccco2)C1(C#N)C#N (stereo not drawn) | 38.9 µM | 
NC(=O)C(c1ccccc1)N1OC2C(=O)N(c3ccccc3)C(=O)C2C1c1c2ccccc2c(Cl)c2ccccc12 (stereo not drawn) | > 100 µM | 
CC(C)c1ccc(/C=C2/C=C(c3ccc4ccccc4c3)OC2=O)cc1 | > 100 µM | 
COc1ccc(C(OCC2OC(n3cc(C)c(=O)[nH]c3=O)CC2n2cc(Cn3cc(I)c(=O)[nH]c3=O)nn2)(c2ccccc2)c2ccccc2)cc1 (stereo not drawn) | > 100 µM | 
O=S1(=O)NC(=NCc2c[nH]c3ccccc23)N(c2ccccc2)c2ccncc21 | > 100 µM | 
COc1ccc(CNc2nc(NCc3ccc(OC)c(OC)c3)nc(NC3CCCCC3)n2)cc1 | > 100 µM | 
Cc1c2cnccc2c(C)c2c1c1ccccc1n2CCCN | 1.98 µM and 1.25 µM | 0.333 µM
O=C(CCC(=O)c1ccc(Cl)cc1)NO | > 100 µM | 
COc1c(C)c(C/C=C(\C)CCCCO[Si](c2ccccc2)(c2ccccc2)C(C)(C)C)c(OC)c(OC)c1OC | > 100 µM | 
COc1ccc(C2c3cc4c(cc3OC(NNS(=O)(=O)c3ccc(C)cc3)C2C)OCO4)cc1 (stereo not drawn) | > 100 µM | 
C[C@@]12C[C@@H](c3ccccc3O1)N1CCCCSC1=N2 | > 100 µM | 
c1ccc(N=C2SC3=Nc4cccc5cccc(c45)N3C2=Nc2ccccc2)cc1 | > 100 µM | 
Cc1nc(C(N)=S)sc1/C(CC(=O)C(=O)Nc1cccc2ccc(O)cc12)=N\NC(=O)c1ccncc1 | > 100 µM | 
Cc1cc(O)c2c(=O)c3ccccc3[nH]c2c1 | > 100 µM | 
Oc1cc2c3c(c1)c1cc4c(cc1c[n+]3CC2)OCO4 | > 41.8 µM | 
Nc1cccc2cc(Cl)cnc12 | > 100 µM | 
C=C1c2nc3ccccc3n2C=C(c2ccccc2)N1c1ccc([N+](=O)[O-])cc1 | > 65.2 µM | 
Cc1ccccc1-n1c(=O)c2ncn(CCCl)c2n(-c2ccccc2C)c1=S | > 100 µM | 

Test system: SNB-75 CNS
Experiment: inhibition of tumour cell growth, NCI panel, 48 h

SMILES | TGI
O=c1[nH][nH]c(=O)n1Cc1ccccc1Cn1c(=O)[nH][nH]c1=O | > 100 µM
CCOC(=O)c1c2ccccc2n2c(N)c(C(N)=O)nnc12 | 30.8 µM
O=C(NNC(=O)c1ccccc1SSc1ccccc1C(=O)NNC(=O)c1ccccc1S)c1ccccc1S | > 49.8 µM
CCOC(=O)C(NC(C)=O)(Nc1ccc(F)cc1)C(F)(F)F (stereo not drawn) | > 100 µM
O=C1/C(=C/c2ccc(O)cc2)CC/C1=C\c1ccc(O)cc1 | > 100 µM
CC(C)C1/C(=N/O)CC(c2ccccc2)N(N=O)C1c1ccccc1 (stereo not drawn) | > 100 µM
COc1cc(/C=C2\S/C(=N/Nc3nc(-c4ccc(Br)cc4)cs3)NC2=O)cc(OC)c1OC | 77.2 µM
COC(=O)[C@H]1CO[C@@H](C(C)(C)C)N1C(=O)N1C=CC(=O)C[C@@H]1C | > 100 µM
CCC1(O)CC2CC(=O)OC2C1O (stereo not drawn) | > 100 µM
Cc1ccc(SCC(CSCCO)OCn2cnc3c2NC(N)=NC32OCCO2)cc1 (stereo not drawn) | > 100 µM
Oc1cccc2c(Cl)ccnc12 | > 100 µM
N#CC1=C(N)N(c2ccccc2)C(c2ccco2)C1(C#N)C#N (stereo not drawn) | 66.8 µM
NC(=O)C(c1ccccc1)N1OC2C(=O)N(c3ccccc3)C(=O)C2C1c1c2ccccc2c(Cl)c2ccccc12 (stereo not drawn) | > 100 µM
CC(C)c1ccc(/C=C2/C=C(c3ccc4ccccc4c3)OC2=O)cc1 | > 100 µM
